Experimental data published in patent publication US8501771B2, “Aminoalcohol-substituted aryldihydroisoquinolinones, process for their preparation and their use as medicaments” (Sanofi, priority 2006, dated 2013).

These molecules were tested against T1, human MCH receptor (Homo sapiens, UniProt Q99705) (assay: Functional IC50 of MCH1R antagonists: cellular calcium flux (FLIPR) after addition of agonist MCH). Conditions: recombinant HEK293 cell line expressing the human MCH receptor.
T1 construct: expressed in transfected cells
T1 sequence (Q99705 whole entry): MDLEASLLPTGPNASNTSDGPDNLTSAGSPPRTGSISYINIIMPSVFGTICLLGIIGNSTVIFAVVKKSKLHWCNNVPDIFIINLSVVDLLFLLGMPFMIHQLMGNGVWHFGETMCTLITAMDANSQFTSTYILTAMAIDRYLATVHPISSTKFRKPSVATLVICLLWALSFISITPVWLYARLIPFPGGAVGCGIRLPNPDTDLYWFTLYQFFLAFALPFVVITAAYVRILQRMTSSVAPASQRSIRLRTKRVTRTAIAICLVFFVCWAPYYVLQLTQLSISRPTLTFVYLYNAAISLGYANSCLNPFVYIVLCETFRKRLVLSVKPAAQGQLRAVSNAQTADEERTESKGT
Type: cell-based
Excerpt: Influence on the MCH receptor in vitro; determination of functional IC50 values of MCH1R antagonists
Cloning of the cDNA for the human MCH receptor, preparation of a recombinant HEK293 cell line which expresses the human MCH receptor, and functional measurements with the recombinant cell line took place in analogy to the description by Audinot et al. (J. Biol. Chem. 276, 13554-13562, 2001). A difference from the reference was, however, the use of the plasmid pEAK8 from EDGE Biosystems (USA) for the construction of the expression vector. The host used for the transfection was a transformed HEK cell line named “PEAK Stable Cells” (likewise from EDGE Biosystems). Functional measurements of the cellular calcium flux after addition of agonist (MCH) in the presence of ligand of the invention took place with the aid of the FLIPR apparatus from Molecular Devices (USA), using protocols of the apparatus manufacturer. The compounds of the invention show a significant inhibition (>30%) of the signal induced by the agonist at a concentration of 100 μM, preferably at 10 μM, particularly preferably at 1 μM, very particularly preferably at 100 nM and even more particularly preferably at 10 nM.
Table 8 summarizes the results which were obtained by the above described calcium […] assay.
Molecule `CCCCOc1ccc2c(c1)CCN(c1ccc(O[C@H]3C[C@H]4CC[C@@H](C3)N4C)c(Cl)c1)C2=O` [Example 1, 6-Butoxy-2-[3-chloro-4-((1R,3R,5S)-8-methyl-8-azabicyclo[3.2.1]oct-3-yloxy)-phenyl]-3,4-dihydro-2H-isoquinolin-1-one] has an IC50 of 930 nM.
`CCCCOc1ccc2c(c1)CCN(c1ccc(OCCN3CCCC3)c(OC)c1)C2=O` [Example 6] showed an IC50 of 270 nM.
Molecule `CCCCOc1ccc2c(c1)CCN(c1ccc(OC[C@@H]3CCCN4CCCC[C@H]34)cc1)C2=O` [Example 9] has an IC50 of 870 nM.
`COCCOc1ccc2c(c1)CCN(c1ccc(OCCN3CCCC3)c(OC)c1)C2=O` [Example 15] was tested, and the IC50 was 5440 nM.
`CN1[C@@H]2CC[C@H]1C[C@@H](Oc1ccc(N3CCc4cc(OCC5CCC5)ccc4C3=O)cc1Cl)C2` [Example 17] showed an IC50 of 1140 nM.
Molecule `CN1[C@@H]2CC[C@H]1C[C@@H](Oc1ccc(N3CCc4cc(OC5CSC5)ccc4C3=O)cc1Cl)C2` [Example 26, 2-[3-Chloro-4-((1R,3R,5S)-8-methyl-8-azabicyclo[3.2.1]oct-3-yloxy)phenyl]-6-(thietan-3-yloxy)-3,4-dihydro-2H-isoquinolin-1-one] has an IC50 of 14800 nM.
`CN1[C@@H]2CC[C@H]1C[C@@H](Oc1ccc(N3CCc4cc(C#CC5(O)CCCC5)ccc4C3=O)cc1Cl)C2` [Example 34] showed an IC50 of 1150 nM.
In the case of `CCC(O)C#Cc1ccc2c(c1)CCN(c1ccc(O[C@H]3C[C@H]4CC[C@@H](C3)N4C)c(Cl)c1)C2=O` (stereo partly drawn) [Example 42], the IC50 is reported as 780 nM.
Molecule `CN1[C@@H]2CC[C@H]1C[C@@H](Oc1ccc(N3CCc4cc(C#CC(C)(C)O)ccc4C3=O)cc1Cl)C2` [Example 45] has an IC50 of 1110 nM.
With `Cc1ccc(-c2cc3c(s2)C(=O)N(c2ccc(OCCN(C)C)cc2)CC3)cc1` [Example 55, 6-[4-(2-Dimethylaminoethoxy)phenyl]-2-p-tolyl-5,6-dihydro-4H-thieno[2,3-c]pyridin-7-one] the IC50 was 4900 nM.
With `CN1[C@@H]2CC[C@H]1C[C@@H](Oc1ccc(-n3ccc4cc(OC[C@@H]5CCCO5)ccc4c3=O)cc1)C2` [Example 56, 2-[4-((1R,3R,5S)-8-Methyl-8-azabicyclo[3.2.1]oct-3-yloxy)phenyl]-6-[(S)-1-(tetrahydrofuran-2-yl)methoxy]-2H-isoquinolin-1-one] the IC50 was 160 nM.
`COc1cc(-n2ccc3cc(OC[C@@H]4CCCO4)ccc3c2=O)ccc1OCCN1CCCC1` [Example 65] was tested, and the IC50 was 130 nM.
For `COc1cc(-n2ccc3cc(OC[C@H]4CCCO4)ccc3c2=O)ccc1OC1CN2CCC1CC2` (stereo partly drawn) [Example 69], the IC50 was 1180 nM.
For `Cc1cc(-n2ccc3cc(OC[C@H]4CCCO4)ccc3c2=O)ccc1O[C@H]1C[C@H]2CC[C@@H](C1)N2CC(C)(C)O` [Example 72], the IC50 was 490 nM.
`COCCN1[C@@H]2CC[C@H]1C[C@@H](Oc1ccc(-n3ccc4cc(OC[C@H]5CCCO5)ccc4c3=O)cc1C)C2` [Example 74] gave an IC50 of 140 nM.
Work on `O=c1c2ccc(OC[C@H]3CCCO3)cc2ccn1-c1ccc(O[C@H]2C[C@H]3CC[C@@H](C2)N3C2CC2)c(F)c1` [Example 75] yielded an IC50 of 5010 nM.
For `Cc1cc(-n2ccc3cc(OC[C@H]4CCCO4)ccc3c2=O)ccc1O[C@H]1C[C@H]2CC[C@@H](C1)N2Cc1ncc[nH]1` [Example 81], the IC50 was 460 nM.
For `COc1cc(-n2ccc3cc(OC[C@@H]4CCCO4)ccc3c2=O)ccc1OCCN1CC2CCC2C1` (stereo partly drawn) [Example 83, 2-{4-[2-(3-Azabicyclo[3.2.0]hept-3-yl)ethoxy]-3-methoxyphenyl}-6-[(S)-1-(tetrahydrofuran-2-yl)methoxy]-2H-isoquinolin-1-one], the IC50 was 840 nM.
`COc1cc(-n2ccc3cc(OC[C@@H]4CCCO4)ccc3c2=O)ccc1OCCN1CC2CCCCC2C1` (stereo partly drawn) [Example 84] showed an IC50 of 250 nM.
`COc1cc(-n2ccc3cc(OC[C@@H]4CCCO4)ccc3c2=O)ccc1OCCN1C2CCC1CC2` [Example 86] showed an IC50 of 210 nM.
Molecule `CCCCOc1ccc2c(c1)CCN(c1ccc(O[C@H]3C[C@H]4CC[C@@H](C3)N4CCCF)cc1)C2=O` [Example 89, 6-Butoxy-2-{4-[(1R,3R,5S)-8-(3-fluoropropyl)-8-azabicyclo[3.2.1]oct-3-yloxy]phenyl}-3,4-dihydro-2H-isoquinolin-1-one] has an IC50 of 4390 nM.
